Reference: PubChem BioAssay (NCI)
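Compound exposure: 48 hours, 5 concentrations, 96-well plates. TGI: concentration producing complete growth inhibition.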

Assays:
Experiment in all cases: growth of human tumour cells (NCI), 48 h
A498 renal = tested on: A498 renal
NCI-H460 lung = tested on: NCI-H460 lung
UACC-62 melanoma = tested on: UACC-62 melanoma
OVCAR-5 ovarian = tested on: OVCAR-5 ovarian
HCC-2998 colon = tested on: HCC-2998 colon
OVCAR-8 ovarian = tested on: OVCAR-8 ovarian
HOP-92 NSCLC = tested on: HOP-92 NSCLC
NCI-H226 lung = tested on: NCI-H226 lung
HCT-15 colon = tested on: HCT-15 colon
UO-31 renal = tested on: UO-31 renal
SK-MEL-2 melanoma = tested on: SK-MEL-2 melanoma
RXF 393 renal = tested on: RXF 393 renal
MOLT-4 leukemia = tested on: MOLT-4 leukemia
SN12C renal = tested on: SN12C renal
M14 melanoma = tested on: M14 melanoma
A549 NSCLC = tested on: A549 NSCLC
HCT-116 colon = tested on: HCT-116 colon
SK-MEL-5 melanoma = tested on: SK-MEL-5 melanoma
SNB-19 CNS = tested on: SNB-19 CNS
OVCAR-3 ovarian = tested on: OVCAR-3 ovarian
SF-268 CNS = tested on: SF-268 CNS
SNB-75 CNS = tested on: SNB-75 CNS
KM12 colon = tested on: KM12 colon
HT29 colon = tested on: HT29 colon
U251 CNS = tested on: U251 CNS
HS 578T breast = tested on: HS 578T breast
SF-295 CNS = tested on: SF-295 CNS
NCI/ADR-RES ovarian = tested on: NCI/ADR-RES ovarian
SF-539 CNS = tested on: SF-539 CNS
786-0 renal = tested on: 786-0 renal
SK-OV-3 ovarian = tested on: SK-OV-3 ovarian
BT-549 breast = tested on: BT-549 breast
T-47D breast = tested on: T-47D breast
EKVX NSCLC = tested on: EKVX NSCLC
COLO 205 colon = tested on: COLO 205 colon
NCI-H23 lung = tested on: NCI-H23 lung
TK-10 renal = tested on: TK-10 renal
MDA-MB-435 = tested on: MDA-MB-435
MDA-N = tested on: MDA-N
OVCAR-4 ovarian = tested on: OVCAR-4 ovarian
IGROV1 ovarian = tested on: IGROV1 ovarian
MDA-MB-231 breast = tested on: MDA-MB-231 breast
ACHN renal = tested on: ACHN renal
UACC-257 melanoma = tested on: UACC-257 melanoma
MCF7 breast = tested on: MCF7 breast
SW-620 colon = tested on: SW-620 colon
DU-145 prostate = tested on: DU-145 prostate
SK-MEL-28 melanoma = tested on: SK-MEL-28 melanoma
HOP-62 NSCLC = tested on: HOP-62 NSCLC
PC-3 prostate = tested on: PC-3 prostate
CCRF-CEM leukemia = tested on: CCRF-CEM leukemia
NCI-H522 lung = tested on: NCI-H522 lung
CAKI-1 renal = tested on: CAKI-1 renal
K-562 leukemia = tested on: K-562 leukemia
RPMI-8226 leukemia = tested on: RPMI-8226 leukemia
MALME-3M melanoma = tested on: MALME-3M melanoma
HL-60(TB) leukemia = tested on: HL-60(TB) leukemia
LOX IMVI melanoma = tested on: LOX IMVI melanoma

Question: How did the TGI (A498 renal) turn out when `O=C(Cc1ccccc1)NN1C(=O)/C(=C\c2ccccc2)SC1=Nc1ccccc1` was run?
Answer: The TGI was > 100 µM.

Question: What about the TGI (NCI-H460 lung) of the same compound?
Answer: Its TGI is > 100 µM.

Question: What about the TGI (UACC-62 melanoma) of the same compound?
Answer: Its TGI is > 100 µM.

Question: And the TGI (OVCAR-5 ovarian)?
Answer: The TGI was > 100 µM.

Question: And the TGI (HCC-2998 colon)?
Answer: Its TGI is > 100 µM.

Question: What about the TGI (OVCAR-8 ovarian) of the same compound?
Answer: Its TGI is > 100 µM.

Question: What about the TGI (HOP-92 NSCLC) of the same compound?
Answer: The TGI was > 100 µM.

Question: And the TGI (NCI-H226 lung)?
Answer: Its TGI is > 100 µM.

Question: And the TGI (HCT-15 colon)?
Answer: Its TGI is > 100 µM.

Question: And the TGI (UO-31 renal)?
Answer: Its TGI is > 100 µM.

Question: And the TGI (SK-MEL-2 melanoma)?
Answer: The TGI was > 100 µM.

Question: What about the TGI (RXF 393 renal) of the same compound?
Answer: Its TGI is > 100 µM.

Question: What about the TGI (MOLT-4 leukemia) of the same compound?
Answer: The TGI was > 100 µM.

Question: And the TGI (SN12C renal)?
Answer: The TGI was > 100 µM.

Question: What about the TGI (M14 melanoma) of the same compound?
Answer: Its TGI is > 100 µM.

Question: What about the TGI (A549 NSCLC) of the same compound?
Answer: The TGI was > 100 µM.

Question: And the TGI (HCT-116 colon)?
Answer: The TGI was > 100 µM.

Question: What about the TGI (SK-MEL-5 melanoma) of the same compound?
Answer: Its TGI is > 100 µM.

Question: And the TGI (SNB-19 CNS)?
Answer: The TGI was > 100 µM.

Question: What about the TGI (OVCAR-3 ovarian) of the same compound?
Answer: The TGI was > 100 µM.

Question: What about the TGI (SF-268 CNS) of the same compound?
Answer: Its TGI is > 100 µM.

Question: And the TGI (SNB-75 CNS)?
Answer: The TGI was > 100 µM.

Question: And the TGI (KM12 colon)?
Answer: Its TGI is > 100 µM.

Question: What about the TGI (HT29 colon) of the same compound?
Answer: Its TGI is > 100 µM.

Question: What about the TGI (U251 CNS) of the same compound?
Answer: Its TGI is > 100 µM.

Question: And the TGI (HS 578T breast)?
Answer: Its TGI is > 100 µM.

Question: What about the TGI (SF-295 CNS) of the same compound?
Answer: The TGI was > 100 µM.

Question: What about the TGI (NCI/ADR-RES ovarian) of the same compound?
Answer: The TGI was > 100 µM.

Question: And the TGI (SF-539 CNS)?
Answer: The TGI was > 100 µM.

Question: And the TGI (786-0 renal)?
Answer: The TGI was > 100 µM.

Question: What about the TGI (SK-OV-3 ovarian) of the same compound?
Answer: The TGI was > 100 µM.

Question: And the TGI (BT-549 breast)?
Answer: Its TGI is > 100 µM.

Question: What about the TGI (T-47D breast) of the same compound?
Answer: The TGI was > 100 µM.

Question: What about the TGI (EKVX NSCLC) of the same compound?
Answer: Its TGI is > 100 µM.

Question: And the TGI (COLO 205 colon)?
Answer: The TGI was > 100 µM.

Question: What about the TGI (NCI-H23 lung) of the same compound?
Answer: The TGI was > 100 µM.

Question: And the TGI (TK-10 renal)?
Answer: Its TGI is > 100 µM.

Question: And the TGI (MDA-MB-435)?
Answer: Its TGI is > 100 µM.

Question: What about the TGI (MDA-N) of the same compound?
Answer: The TGI was > 100 µM.

Question: And the TGI (OVCAR-4 ovarian)?
Answer: Its TGI is > 100 µM.

Question: And the TGI (IGROV1 ovarian)?
Answer: Its TGI is > 100 µM.

Question: And the TGI (MDA-MB-231 breast)?
Answer: The TGI was > 100 µM.

Question: What about the TGI (ACHN renal) of the same compound?
Answer: The TGI was > 100 µM.

Question: What about the TGI (UACC-257 melanoma) of the same compound?
Answer: Its TGI is > 100 µM.

Question: And the TGI (MCF7 breast)?
Answer: Its TGI is > 100 µM.

Question: What about the TGI (SW-620 colon) of the same compound?
Answer: The TGI was > 100 µM.

Question: And the TGI (DU-145 prostate)?
Answer: Its TGI is > 100 µM.

Question: What about the TGI (SK-MEL-28 melanoma) of the same compound?
Answer: The TGI was > 100 µM.

Question: What about the TGI (HOP-62 NSCLC) of the same compound?
Answer: Its TGI is > 100 µM.

Question: Which results are given for `O=C(O)C(SC1=NNC2(C(=O)N1)c1ccccc1-c1ccccc12)SC1=NNC2(C(=O)N1)c1ccccc1-c1ccccc12`?
Answer: TGI (A498 renal): > 10 µM; TGI (NCI-H460 lung): > 10 µM; TGI (UACC-62 melanoma): > 10 µM; TGI (OVCAR-5 ovarian): > 10 µM; TGI (HCC-2998 colon): > 10 µM; TGI (OVCAR-8 ovarian): > 10 µM; TGI (HOP-92 NSCLC): > 10 µM; TGI (PC-3 prostate): > 10 µM; TGI (NCI-H226 lung): > 10 µM; TGI (HCT-15 colon): > 10 µM; TGI (UO-31 renal): > 10 µM; TGI (CCRF-CEM leukemia): > 10 µM; TGI (SK-MEL-2 melanoma): > 10 µM; TGI (NCI-H522 lung): > 10 µM; TGI (RXF 393 renal): > 10 µM; TGI (MOLT-4 leukemia): > 10 µM; TGI (SN12C renal): > 10 µM; TGI (M14 melanoma): > 10 µM; TGI (A549 NSCLC): > 10 µM; TGI (HCT-116 colon): > 10 µM; TGI (SK-MEL-5 melanoma): > 10 µM; TGI (SNB-19 CNS): > 10 µM; TGI (OVCAR-3 ovarian): > 10 µM; TGI (SF-268 CNS): > 10 µM; TGI (SNB-75 CNS): > 10 µM; TGI (KM12 colon): > 10 µM; TGI (HT29 colon): > 10 µM; TGI (U251 CNS): > 10 µM; TGI (HS 578T breast): > 10 µM; TGI (SF-295 CNS): > 10 µM; TGI (NCI/ADR-RES ovarian): > 10 µM; TGI (SF-539 CNS): > 10 µM; TGI (786-0 renal): > 10 µM; TGI (SK-OV-3 ovarian): > 10 µM; TGI (CAKI-1 renal): > 10 µM; TGI (BT-549 breast): > 10 µM; TGI (T-47D breast): > 10 µM; TGI (EKVX NSCLC): > 10 µM; TGI (COLO 205 colon): > 10 µM; TGI (K-562 leukemia): > 10 µM; TGI (RPMI-8226 leukemia): > 10 µM; TGI (NCI-H23 lung): > 10 µM; TGI (TK-10 renal): > 10 µM; TGI (MALME-3M melanoma): > 10 µM; TGI (MDA-MB-435): > 10 µM; TGI (MDA-N): > 10 µM; TGI (OVCAR-4 ovarian): > 10 µM; TGI (IGROV1 ovarian): > 10 µM; TGI (MDA-MB-231 breast): > 10 µM; TGI (HL-60(TB) leukemia): > 10 µM; TGI (ACHN renal): > 10 µM; TGI (UACC-257 melanoma): > 10 µM; TGI (MCF7 breast): > 10 µM; TGI (SW-620 colon): > 10 µM; TGI (DU-145 prostate): > 10 µM; TGI (LOX IMVI melanoma): > 10 µM; TGI (SK-MEL-28 melanoma): > 10 µM; TGI (HOP-62 NSCLC): > 10 µM
